Three compounds from paper PMC4575645 (ACS chemical biology, 2015) can be followed below.

For one assay, the target named is WecE (Escherichia coli, UniProt P27833). The assay can be described thus: X-ray crystal structure, […] Å. To be noted: covalent external aldimine with PLP; eight subunits. In kind it is binding.
For another assay, the target named is CalS13 (Micromonospora echinospora, UniProt Q8KND8). Description: X-ray crystal structure, […] Å. In kind it is binding.

WecE, sequence (P27833 whole entry): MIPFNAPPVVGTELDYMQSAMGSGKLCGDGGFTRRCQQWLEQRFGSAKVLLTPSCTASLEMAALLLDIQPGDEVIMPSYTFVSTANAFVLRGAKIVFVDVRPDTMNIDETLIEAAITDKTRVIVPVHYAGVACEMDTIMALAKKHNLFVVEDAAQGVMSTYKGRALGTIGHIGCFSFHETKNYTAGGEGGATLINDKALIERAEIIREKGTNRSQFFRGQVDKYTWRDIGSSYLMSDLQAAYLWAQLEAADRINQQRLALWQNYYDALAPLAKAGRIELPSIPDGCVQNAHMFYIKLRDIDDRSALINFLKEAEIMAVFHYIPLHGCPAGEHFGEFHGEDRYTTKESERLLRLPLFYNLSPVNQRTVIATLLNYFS

With `Cc1cn([C@H]2C[C@H](O)[C@@H](COP(=O)(O)OP(=O)(O)O[C@H]3O[C@H](C)[C@H](N)[C@H](O)[C@H]3O)O2)c(=O)[nH]c1=O` [TDP-4-amino-4,6-dideoxy-α-D-galactose], the “X-ray crystal structure, 2.24 Å” value at WecE is “WecE cocrystallization led to WecE/PLP/TDP-4-amino-4,6-dideoxygalactose ternary complexes”.

Consider `Cc1ncc(COP(=O)(O)O)c(C=O)c1O` [PLP], for which the “X-ray crystal structure, 2.47 Å” value at CalS13 (covalent internal aldimine with Lys202, all six subunits) is given as “All six subunits contained PLP as internal aldimines of Lys202”.

As to `Cc1cn([C@H]2C[C@H](O)[C@@H](COP(=O)(O)OP(=O)(O)O)O2)c(=O)[nH]c1=O` [TDP], the “X-ray crystal structure, 2.47 Å” value on CalS13 (with PLP internal aldimine, three of six subunits) was “three had electron density for just TDP”.
